Details: Liquid; for mass density: 298.15 K, 101.33 kPa

COC(=O)OC [dimethyl carbonate]
Details	mass density [kg/m3]	vapor or sublimation pressure [kPa]
–	1063.38	–
336.68 K	–	40
344.38 K	–	53.33
350.66 K	–	66.66
356.01 K	–	79.99
360.68 K	–	93.32

CCO [ethanol]
Details	mass density [kg/m3]
–	785.23

Ebulliometric method (Recirculating still)
Details	vapor or sublimation pressure [kPa]
329.7 K	40
336.11 K	53.33
341.28 K	66.66
345.65 K	79.99
349.45 K	93.32

CO [methanol]
Details	mass density [kg/m3]
–	786.67

Ebulliometric method (Recirculating still)
Details	vapor or sublimation pressure [kPa]
315.74 K	40
315.87 K	40
322.17 K	53.33
322.25 K	53.33
327.37 K	66.66
327.45 K	66.66
331.75 K	79.99
331.84 K	79.99
335.56 K	93.32
335.66 K	93.32
